molecular target: T1, Lysine-specific histone demethylase 1A (Homo sapiens, UniProt O60341)

SMILES	IC50
CN1CCN(C(=O)CN[C@H]2C[C@@H]2c2ccc(-c3ccc(F)nc3)cc2)CC1 (relative stereo)	0.077 µM

molecular target: T1, Lysine-specific histone demethylase 1A; remark: another data set of the same source

SMILES	Ki
Cc1ccc(-c2ncc(OCC3CCNCC3)cc2-c2ccc(CN3CCCCC3)cc2)cc1	> 50 µM
N#Cc1ccc(-c2ncc(OCC3CCNCC3)nc2-c2ccc(C#N)cc2)cc1	9.1 µM
Cc1ccc(-c2ncc(OCC3CCNCC3)cc2-c2ccc(C(=O)N3CCOCC3)cc2)cc1	> 50 µM
Cc1ccc(-c2ncc(OCc3ccccc3)cc2-c2ccc(C#N)cc2)cc1	> 50 µM
N#Cc1ccc(-c2nc(OCC3CCNCC3)cnc2-c2ccc(Br)cc2)cc1	0.54 µM
c1ccc(-c2ccc(OCC3CCNCC3)cn2)cc1	> 50 µM
C#Cc1ccc(-c2cc(OCC3CCNCC3)cnc2-c2ccc(C)cc2)cc1	> 50 µM
Brc1ccc(-c2ncc(OCC3CCNCC3)nc2-c2ccc(Br)cc2)cc1	26.2 µM
N#Cc1ccc(-c2ncc(OCC3CCNCC3)nc2-c2ccc(Br)cc2)cc1	16.5 µM
Cc1ccc(-c2ncc(OCC3CCNCC3)cc2-c2ccc(C(=O)N3CCNCC3)cc2)cc1	> 50 µM
Cc1ccc(-c2ncc(OCC3CCNCC3)cc2-c2ccc(C(=O)O)cc2)cc1	> 50 µM
Cc1ccc(-c2ncc(OCC3CCNCC3)cc2-c2ccc(CO)cc2)cc1	> 50 µM
Cc1ccc(-c2ncc(OCC3CCNCC3)cc2-c2ccc(C(=O)N3CCCCC3)cc2)cc1	> 50 µM
c1ccc(-c2cc(OCC3CCNCC3)cnc2-c2ccccc2)cc1	> 50 µM
Cc1ccc(-c2ncc(O)cc2-c2ccc(C#N)cc2)cc1	> 50 µM
Cc1ccc(-c2ncc(OCC3CCNCC3)cc2-c2ccc(C(=O)NC3CC3)cc2)cc1	> 50 µM

molecular target: T2, Amine oxidase [flavin-containing] A (Homo sapiens, UniProt P21397)
T2 sequence (P21397 whole entry): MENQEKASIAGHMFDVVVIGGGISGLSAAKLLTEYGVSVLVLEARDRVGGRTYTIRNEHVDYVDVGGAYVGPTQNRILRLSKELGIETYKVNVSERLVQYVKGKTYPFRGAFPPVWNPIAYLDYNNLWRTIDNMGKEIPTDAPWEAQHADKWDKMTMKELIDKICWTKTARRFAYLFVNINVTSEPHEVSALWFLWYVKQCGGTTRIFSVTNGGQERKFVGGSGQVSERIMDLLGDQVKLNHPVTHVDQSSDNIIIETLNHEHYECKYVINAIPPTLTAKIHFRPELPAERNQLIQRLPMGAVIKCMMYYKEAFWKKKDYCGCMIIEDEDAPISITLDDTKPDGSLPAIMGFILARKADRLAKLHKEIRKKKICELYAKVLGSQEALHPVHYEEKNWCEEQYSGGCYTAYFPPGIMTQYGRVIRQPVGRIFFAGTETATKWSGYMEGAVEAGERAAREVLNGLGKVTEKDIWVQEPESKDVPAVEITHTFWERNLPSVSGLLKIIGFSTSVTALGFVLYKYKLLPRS
Description: Inhibition of recombinant human MAO-A after 60 mins MAO-glo assay

SMILES	Ki
N#Cc1ccc(-c2cc(OCC3CCNCC3)cnc2-c2ccccc2)cc1	> 50 µM
N#Cc1ccc(-c2cc(OCC3CCNCC3)cnc2-c2ccc(OC(F)(F)F)cc2)cc1	> 50 µM
Cc1ccc(-c2ncc(OCC3CCNCC3)cc2-c2ccc(C#N)cc2)cc1	> 50 µM
N#Cc1ccc(-c2cc(OCC3CCNCC3)cnc2-c2ccc(C(F)(F)F)cc2)cc1	> 50 µM

Reference: ChEMBL document CHEMBL3758149, “3-(Piperidin-4-ylmethoxy)pyridine Containing Compounds Are Potent Inhibitors of Lysine Specific Demethylase 1” (J Med Chem, 2016)
